Assay results from patent US20230017045A1, “PYRIDINE AND PYRIMIDINE CARBOXYLATE HERBICIDES AND METHODS OF USE THEREOF” (Dow AgroSciences LLC, priority 2017, published 2023).
Read-outs that look alike come from different tables or passages of the source.

System: test plant species
Test: Post-emergent herbicidal activity test (greenhouse, foliar spray, visual growth reduction)
Format: in vivo
Conditions: post-emergence, 336 h, 140 g ai/ha
Method: Post-emergent Test: Seeds or nutlets of the desired test plant species were planted in Sun Gro Metro-Mix® 360 planting mixture, which typically has a pH of 6.0 to 6.8 and an organic matter content of about 30 percent, in plastic pots with a surface area of 64 square centimeters. In some aspects, to ensure good germination and healthy plants, a fungicide treatment and/or other chemical or physical treatment was applied. The plants were grown for 7-21 d in a greenhouse with an approximate 15 h photoperiod which was maintained at 23-29° C. during the day and 22-28° C. during the night. Nutrients and water were added on a regular basis and supplemental lighting was provided with overhead metal halide 1000-Watt lamps as necessary. Plants were used for testing when they reached the first or second true leaf stage. A weighed amount, determined by the highest rate to be tested, of each test compound was placed in a 25 mL glass vial and was dissolved in 4 mL of a 97:3 v/v mixture of acetone and DMSO to obtain concentrated stock solutions. […] The concentrated stock solutions obtained were diluted with 20 mL of an aqueous mixture containing acetone, water, isopropyl alcohol, DMSO, […] crop oil concentrate, and X-77 surfactant in a 48.5:39:10:1.5:1.0:0.02 v/v ratio to obtain spray solutions containing the application rate. Compound requirements are based upon a 12 mL application volume at a rate of 187 liters per hectare (L/ha). Formulated compounds were applied to the plant material with an overhead Mandel track sprayer equipped with […] nozzles calibrated to deliver 187 L/ha over an application area of 0.64 square meters at a spray height of 18 inches (43 cm) above the average plant canopy height. Control plants were sprayed in the same manner with the solvent blank. The treated plants and control plants were placed in a greenhouse as described above and watered by subirrigation to prevent wash-off of the test compounds. After 14 d, the condition of the test plants as compared with that of the nontreated and control plants was determined visually and scored on a scale of 0 to 100 percent where 0 corresponds to no injury and 100 corresponds to complete control. In the reporting of the results, Table A: Percent Growth Reduction Conversion Table was used.

[1] = ALOMY: blackgrass (Alopecurus myosuroides), 14 days after application, read-out: Visual Growth Reduction (%) 14 Days After Application, ALOMY
[2] = AMARE: redroot pigweed (Amaranthus retroflexus), 14 days after application, read-out: Visual Growth Reduction (%) 14 Days After Application, AMARE
[3] = AVEFA: wild oat (Avena fatua), 14 days after application, read-out: Visual Growth Reduction (%) 14 Days After Application, AVEFA
[4] = CHEAL: lambsquarters (Chenopodium album), 14 days after application, read-out: Visual Growth Reduction (%) 14 Days After Application, CHEAL
[5] = CIRAR: canada thistle (Cirsium arvense), 14 days after application, read-out: Visual Growth Reduction (%) 14 Days After Application, CIRAR
[6] = CYPES: yellow nutsedge (Cyperus esculentus), 14 days after application, read-out: Visual Growth Reduction (%) 14 Days After Application, CYPES
[7] = DIGSA: crabgrass (Digitaria sanguinalis), 14 days after application, read-out: Visual Growth Reduction (%) 14 Days After Application, DIGSA
[8] = ECHCG: barnyardgrass (Echinochloa crus-galli), 14 days after application, read-out: Visual Growth Reduction (%) 14 Days After Application, ECHCG
[9] = IPOHE: ivy-leaf morning glory (Ipomoea hederacea), 14 days after application, read-out: Visual Growth Reduction (%) 14 Days After Application, IPOHE
[10] = KCHSC: kochia (Bassia scoparia), 14 days after application, read-out: Visual Growth Reduction (%) 14 Days After Application, KCHSC
[11] = ORYSA: rice (Oryza sativa), 14 days after application, read-out: Visual Growth Reduction (%) 14 Days After Application, ORYSA
[12] = SETFA: giant foxtail (Setaria faberi), 14 days after application, read-out: Visual Growth Reduction (%) 14 Days After Application, SETFA
[13] = SORVU: grain sorghum (Sorghum vulgare), 14 days after application, read-out: Visual Growth Reduction (%) 14 Days After Application, SORVU
[14] = STEME: common chickweed (Stellaria media), 14 days after application, read-out: Visual Growth Reduction (%) 14 Days After Application, STEME
[15] = TRZAS: wheat, spring (Triticum aestivum), 14 days after application, read-out: Visual Growth Reduction (%) 14 Days After Application, TRZAS
[16] = blackgrass (Alopecurus myosuroides), 14 Days After Application, read-out: Visual Growth Reduction (%) ALOMY
[17] = canada thistle (Cirsium arvense), 14 Days After Application, read-out: Visual Growth Reduction (%) CIRAR
[18] = crabgrass (Digitaria sanguinalis), 14 Days After Application, read-out: Visual Growth Reduction (%) DIGSA
[19] = lambsquarters (Chenopodium album), 14 Days After Application, read-out: Visual Growth Reduction (%) CHEAL
[20] = redroot pigweed (Amaranthus retroflexus), 14 Days After Application, read-out: Visual Growth Reduction (%) AMARE
[21] = wild oat (Avena fatua), 14 Days After Application, read-out: Visual Growth Reduction (%) AVEFA
[22] = yellow nutsedge (Cyperus esculentus), 14 Days After Application, read-out: Visual Growth Reduction (%) CYPES

SMILES | pest or weed control at 140 g/ha [1] | pest or weed control at 140 g/ha [2] | pest or weed control at 140 g/ha [3] | pest or weed control at 140 g/ha [4] | pest or weed control at 140 g/ha [5] | pest or weed control at 140 g/ha [6] | pest or weed control at 140 g/ha [7] | pest or weed control at 140 g/ha [8] | pest or weed control at 140 g/ha [9] | pest or weed control at 140 g/ha [10] | pest or weed control at 140 g/ha [11] | pest or weed control at 140 g/ha [12] | pest or weed control at 140 g/ha [13] | pest or weed control at 140 g/ha [14] | pest or weed control at 140 g/ha [15] | pest or weed control at 140 g/ha [16] | pest or weed control at 140 g/ha [17] | pest or weed control at 140 g/ha [18] | pest or weed control at 140 g/ha [19] | pest or weed control at 140 g/ha [20] | further results
COC(=O)c1nc(-c2ccc3occc3c2)c(F)cc1Cl [F188, Methyl 6-(benzofuran-5-yl)-3-chloro-5-fluoropicolinate] | 0 to 29% | 0 to 29% | 0 to 29% | 60 to 74% | 45 to 59% | 0 to 29% | 30 to 44% | 0 to 29% | 30 to 44% | 0 to 29% | 0 to 29% | 0 to 29% | 0 to 29% | 0 to 29% | 0 to 29% |  |  |  |  |  | 
COC(=O)c1nc(-c2ccc(C(C)(F)F)cc2Cl)ccc1Cl [F112, Methyl 3-chloro-6-(2-chloro-4-(1,1-difluoroethyl)phenyl) picolinate] | 60 to 74% | 95 to 100% | 95 to 100% | 95 to 100% | 95 to 100% | 45 to 59% | 85 to 94% | 75 to 84% | 95 to 100% | 95 to 100% | 0 to 29% | 60 to 74% | 95 to 100% |  | 60 to 74% |  |  |  |  |  | 
COC(=O)c1nc(-c2ccc3[nH]ccc3c2)c(F)cc1Cl [F189, Methyl 3-chloro-5-fluoro-6-(1H-indol-5-yl)picolinate] | 0 to 29% | 0 to 29% | 0 to 29% | 30 to 44% | 30 to 44% | 0 to 29% | 0 to 29% | 0 to 29% | 60 to 74% | 0 to 29% | 0 to 29% | 0 to 29% | 0 to 29% | 0 to 29% | 0 to 29% |  |  |  |  |  | 
COC(=O)c1nc(-c2ccc(C(F)(F)F)c3ccoc23)c(F)cc1Cl [F297, Methyl 3-chloro-5-fluoro-6-(4-(trifluoromethyl)benzofuran-7-yl) picolinate] |  |  |  |  |  |  |  | 0 to 29% | 95 to 100% | 45 to 59% | 0 to 29% | 60 to 74% | 60 to 74% | 0 to 29% | 0 to 29% | 0 to 29% | 85 to 94% | 75 to 84% | 85 to 94% | 85 to 94% | pest or weed control at 140 g/ha [21]: 0 to 29%; pest or weed control at 140 g/ha [22]: 0 to 29%
COC(=O)c1nc(-c2ccc(SC(F)(F)F)cc2)c(Cl)cc1Cl [F98, Methyl 3,5-dichloro-6-(4-((trifluoromethyl)thio)phenyl)picolinate] | 0 to 29% | 0 to 29% | 0 to 29% | 0 to 29% | 0 to 29% | 0 to 29% | 0 to 29% | 0 to 29% | 0 to 29% | 0 to 29% | 0 to 29% | 0 to 29% | 0 to 29% | 0 to 29% | 0 to 29% |  |  |  |  |  | 
COC(=O)c1nc(-c2cc(Cl)c(C)cc2F)ccc1Cl [F271, Methyl 3-chloro-6-(5-chloro-2-fluoro-4-methylphenyl) picolinate] |  |  |  |  |  |  |  | 0 to 29% | 0 to 29% | 0 to 29% | 0 to 29% | 0 to 29% | 0 to 29% | 0 to 29% | 0 to 29% | 0 to 29% | 0 to 29% | 0 to 29% | 60 to 74% | 0 to 29% | pest or weed control at 140 g/ha [21]: 0 to 29%; pest or weed control at 140 g/ha [22]: 0 to 29%
COC(=O)c1nc(-c2ncc(C(F)(F)F)cc2Cl)ccc1Cl [F101, methyl 3′,5-dichloro-5′-(trifluoromethyl)-[2,2′-bipyridine]-6-carboxylate] | 0 to 29% | 95 to 100% | 0 to 29% | 95 to 100% | 85 to 94% | 75 to 84% | 95 to 100% | 85 to 94% | 95 to 100% | 95 to 100% | 0 to 29% | 75 to 84% | 95 to 100% | 0 to 29% | 60 to 74% |  |  |  |  |  | 
O=C(O)c1nc(-c2nc(Cl)c(C(F)(F)F)cc2Cl)ccc1Cl [F225, 3′,5,6′-Trichloro-5'-(trifluoromethyl)-[2,2′-bipyridine]-6-carboxylic acid] |  |  |  |  |  |  |  | 95 to 100% | 95 to 100% | 95 to 100% | 85 to 94% | 95 to 100% | 95 to 100% | 45 to 59% | 75 to 84% | 45 to 59% | 85 to 94% | 95 to 100% | 95 to 100% | 95 to 100% | pest or weed control at 140 g/ha [21]: 95 to 100%; pest or weed control at 140 g/ha [22]: 45 to 59%
